From patent publication US20170190671A1, “BIS(ARYL)CATECHOL DERIVATIVES AS HERBICIDES” (E I DU PONT DE NEMOURS AND COMPANY, priority 2014, published 2017)

How the values were obtained:
Experiment in all cases: Test E preemergence
Format in all cases: in vivo
Conditions in all cases: scale 0 to 100
[1] = test system: large (Lg) crabgrass (Digitaria sanguinalis)
Outline: (§1)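 Visual ratings from 0 = no effect to 100 = complete control, scored against untreated controls after 14 to 21 days in the greenhouse. Compounds, in a non-phytotoxic solvent mix with surfactant, went onto silt loam soil right after sowing (preemergence) or onto 2–18 cm plants at the 1- to 4-leaf stage (postemergence).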

[2] = test system: lambsquarters (Chenopodium album)
Outline: as §1

[3] = test system: Italian ryegrass (Lolium multiflorum)
Outline: as §1

[4] = test system: hairy beggarticks (Bidens pilosa)
Outline: as §1

[5] = test system: fall panicum (Panicum dichotomiflorum)
Outline: as §1

corn (Zea mays) = test system: corn (Zea mays)
Outline: as §1

[6] = test system: yellow nutsedge (Cyperus esculentus)
Outline: as §1

soybean (Glycine max) = test system: soybean (Glycine max)
Outline: as §1

[7] = test system: waterhemp (common waterhemp, Amaranthus rudis)
Outline: as §1

[8] = test system: arrowleaf sida (Sida rhombifolia)
Outline: as §1

[9] = test system: green foxtail (Setaria viridis)
Outline: as §1

[10] = test system: velvetleaf (Abutilon theophrasti)
Outline: as §1

[11] = test system: goosegrass (Eleusine indica)
Outline: as §1

[12] = test system: dayflower (Virginia (VA) dayflower, Commelina virginica)
Outline: as §1

[13] = test system: sandbur (southern sandbur, Cenchrus echinatus)
Outline: as §1

[14] = test system: nightshade (eastern black nightshade, Solanum ptycanthum)
Outline: as §1

[15] = test system: ragweed (common ragweed, Ambrosia elatior)
Outline: as §1

[16] = test system: Brazilian crabgrass (Digitaria horizontalis)
Outline: as §1

[17] = test system: barnyardgrass (Echinochloa crus-galli)
Outline: as §1

[18] = test system: morningglory (Ipomoea coccinea)
Outline: as §1

[19] = test system: giant foxtail (Setaria faberii)
Outline: as §1

## N#Cc1cccc(Oc2ncc(Cl)cn2)c1Oc1ncc(C(F)(F)F)cn1 [Compound 38, 3-[(5-chloro-2-pyrimidinyl)oxy]-2-[[5-(trifluoromethyl)-2-pyrimidinyl]oxy]-benzonitrile]
[1]; 16 g ai/ha
  Plant response rating, Crabgrass, Large: 50
[1]; 31 g ai/ha
  Plant response rating, Crabgrass, Large: 75
[1]; 62 g ai/ha
  Plant response rating, Crabgrass, Large: 100
[1]; 125 g ai/ha
  Plant response rating, Crabgrass, Large: 100
[2]; 16 g ai/ha
  Plant response rating, Lambsquarters: 98
[2]; 31 g ai/ha
  Plant response rating, Lambsquarters: 100
[2]; 62 g ai/ha
  Plant response rating, Lambsquarters: 100
[2]; 125 g ai/ha
  Plant response rating, Lambsquarters: 100
[3]; 16 g ai/ha
  Plant response rating, Ryegrass, Italian: 0
[3]; 31 g ai/ha
  Plant response rating, Ryegrass, Italian: 25
[3]; 62 g ai/ha
  Plant response rating, Ryegrass, Italian: 65
[3]; 125 g ai/ha
  Plant response rating, Ryegrass, Italian: 80
[4]; 16 g ai/ha
  Plant response rating, Beggarticks: 0
[4]; 31 g ai/ha
  Plant response rating, Beggarticks: 0
[4]; 62 g ai/ha
  Plant response rating, Beggarticks: 0
[4]; 125 g ai/ha
  Plant response rating, Beggarticks: 35
[5]; 16 g ai/ha
  Plant response rating, Panicum, Fall: 0
[5]; 31 g ai/ha
  Plant response rating, Panicum, Fall: 98
[5]; 62 g ai/ha
  Plant response rating, Panicum, Fall: 100
[5]; 125 g ai/ha
  Plant response rating, Panicum, Fall: 100
Corn (Zea mays); 16 g ai/ha
  Plant response rating, Corn: 0
Corn (Zea mays); 31 g ai/ha
  Plant response rating, Corn: 0
Corn (Zea mays); 62 g ai/ha
  Plant response rating, Corn: 35
Corn (Zea mays); 125 g ai/ha
  Plant response rating, Corn: 50
[6]; 16 g ai/ha
  Plant response rating, Nutsedge, Yellow: 0
[6]; 31 g ai/ha
  Plant response rating, Nutsedge, Yellow: 0
[6]; 62 g ai/ha
  Plant response rating, Nutsedge, Yellow: 20
[6]; 125 g ai/ha
  Plant response rating, Nutsedge, Yellow: 65
Soybean (Glycine max); 16 g ai/ha
  Plant response rating, Soybean: 15
Soybean (Glycine max); 31 g ai/ha
  Plant response rating, Soybean: 15
Soybean (Glycine max); 62 g ai/ha
  Plant response rating, Soybean: 95
Soybean (Glycine max); 125 g ai/ha
  Plant response rating, Soybean: 80
[7]; 16 g ai/ha
  Plant response rating, Waterhemp: 50
[7]; 31 g ai/ha
  Plant response rating, Waterhemp: 98
[7]; 62 g ai/ha
  Plant response rating, Waterhemp: 98
[7]; 125 g ai/ha
  Plant response rating, Waterhemp: 100
[8]; 16 g ai/ha
  Plant response rating, Arrowleaf Sida: 60
[8]; 31 g ai/ha
  Plant response rating, Arrowleaf Sida: 50
[8]; 62 g ai/ha
  Plant response rating, Arrowleaf Sida: 80
[8]; 125 g ai/ha
  Plant response rating, Arrowleaf Sida: 100
[9]; 16 g ai/ha
  Plant response rating, Foxtail, Green: 5
[9]; 31 g ai/ha
  Plant response rating, Foxtail, Green: 30
[9]; 62 g ai/ha
  Plant response rating, Foxtail, Green: 100
[9]; 125 g ai/ha
  Plant response rating, Foxtail, Green: 100
[10]; 16 g ai/ha
  Plant response rating, Velvetleaf: 20
[10]; 31 g ai/ha
  Plant response rating, Velvetleaf: 65
[10]; 62 g ai/ha
  Plant response rating, Velvetleaf: 85
[10]; 125 g ai/ha
  Plant response rating, Velvetleaf: 100
[11]; 16 g ai/ha
  Plant response rating, Goosegrass: 30
[11]; 31 g ai/ha
  Plant response rating, Goosegrass: 50
[11]; 62 g ai/ha
  Plant response rating, Goosegrass: 90
[11]; 125 g ai/ha
  Plant response rating, Goosegrass: 100
[12]; 16 g ai/ha
  Plant response rating, Dayflower, VA: 0
[12]; 31 g ai/ha
  Plant response rating, Dayflower, VA: 0
[12]; 62 g ai/ha
  Plant response rating, Dayflower, VA: 20
[12]; 125 g ai/ha
  Plant response rating, Dayflower, VA: 60
[13]; 16 g ai/ha
  Plant response rating, Sandbur: 0
[13]; 31 g ai/ha
  Plant response rating, Sandbur: 0
[13]; 62 g ai/ha
  Plant response rating, Sandbur: 35
[13]; 125 g ai/ha
  Plant response rating, Sandbur: 80
[14]; 16 g ai/ha
  Plant response rating, Nightshade: 5
[14]; 31 g ai/ha
  Plant response rating, Nightshade: 95
[14]; 62 g ai/ha
  Plant response rating, Nightshade: 98
[14]; 125 g ai/ha
  Plant response rating, Nightshade: 100
[15]; 16 g ai/ha
  Plant response rating, Ragweed: 40
[15]; 31 g ai/ha
  Plant response rating, Ragweed: 40
[15]; 62 g ai/ha
  Plant response rating, Ragweed: 60
[15]; 125 g ai/ha
  Plant response rating, Ragweed: 70
[16]; 16 g ai/ha
  Plant response rating, Crabgrass, Brazil: 80
[16]; 31 g ai/ha
  Plant response rating, Crabgrass, Brazil: 98
[16]; 62 g ai/ha
  Plant response rating, Crabgrass, Brazil: 100
[16]; 125 g ai/ha
  Plant response rating, Crabgrass, Brazil: 100
[17]; 16 g ai/ha
  Plant response rating, Barnyardgrass: 0
[17]; 31 g ai/ha
  Plant response rating, Barnyardgrass: 10
[17]; 62 g ai/ha
  Plant response rating, Barnyardgrass: 70
[17]; 125 g ai/ha
  Plant response rating, Barnyardgrass: 90
[18]; 16 g ai/ha
  Plant response rating, Morningglory: 0
[18]; 31 g ai/ha
  Plant response rating, Morningglory: 0
[18]; 62 g ai/ha
  Plant response rating, Morningglory: 50
[18]; 125 g ai/ha
  Plant response rating, Morningglory: 35
[19]; 16 g ai/ha
  Plant response rating, Foxtail, Giant: 5
[19]; 31 g ai/ha
  Plant response rating, Foxtail, Giant: 70
[19]; 62 g ai/ha
  Plant response rating, Foxtail, Giant: 100
[19]; 125 g ai/ha
  Plant response rating, Foxtail, Giant: 100
